Experimental data: patent US20240199676A1, “ANTIVIRAL COMPOUNDS AND METHODS OF MAKING AND USING THE SAME” (Gilead Sciences, Inc., priority 2022, published 2024)

Legend:
[1] = GI S9 stability (Ex. Z), cyno intestinal S9; type: in vitro ADME; details: cynomolgus monkey, pooled intestinal S9 fractions; cyno intestinal S9, 1.0 mg/mL protein, 2 μM substrate, pH 7.4; read-out: GIS9 Cyno T½ (per Ex. Z)
Description: (§1) Example Z: GI S9 stability data:
(§2) Stock solutions of test compounds in dimethyl sulfoxide (DMSO) having a final concentration of 10 mM were prepared and used in all experiments. Sekisui XenoTech (Kansas City, KS) provided pooled intestinal S9 fractions. All other chemicals were purchased from Sigma-Aldrich (St. Louis, MO) or VWR (West Chester, PA). Internal Standard/Quench (IS/Q) used to stop reactions was 100 nM labetalol in (by volume) methanol (10%) and acetonitrile (90%).
(§3) Stability in Intestinal S9 Fractions: Duplicate aliquots of test compound or positive control substrate were added to S9 stock diluted with phosphate buffered saline (137 mM NaCl, 2.7 mM KCl, 10 mM phosphate buffer), pH 7.4, to obtain a protein concentration of 1.0 mg/mL. The metabolic reactions were initiated by the addition of the substrates to the S9 reaction mixture to a final concentration of 2 μM. At 0, 10, 20, 30, 60 and 120 min, 25 μL aliquots of the reaction mixture were transferred to plates containing 225 μl of IS/Q solution. After quenching, the plates were centrifuged at 3000×g for 30 minutes. 150 μL aliquots of each supernatant were dried down then reconstituted with 300 μL water. Aliquots (10 μL) of the prepared samples were analyzed on a Thermo Q-Exactive mass spectrometer as described below.
(§4) Liquid Chromatography—Mass Spectrometry: Quantification of test compounds and control substrate was performed by analyte/internal standard peak area ratio (PAR) values measured on a Thermo Q-Exactive mass spectrometer coupled to a Dionex UltiMate 3000 HPLC with a Leap Technologies HTC PAL autosampler. The column used for analysis was a Waters Acquity BEH C18 (1.7 μm particle size, 2.1×50 mm). Mobile phase A consisted of 0.1% (v/v) formic acid in water. Mobile phase B consisted of 0.1% (v/v) formic acid in acetonitrile. Elution of analytes was achieved by a series of linear gradients varying the proportions of A and B. The mass spectrometer was calibrated on a weekly basis and mass tolerance of 5 ppm was used.
(§5) Metabolic stabilities in S9 fractions were determined by measuring the rates of disappearance of test compound and positive control substrate.
(§6) Data (% of substrate remaining) were plotted on a semi-log scale and fitted using an exponential decline model:
(§7) Where Ct—% of substrate remaining at time=t; C0—% of substrate remaining at time=0; t—time; T½—half-life The Half-life (T½) is determined by the following equation: […]
(§8) Assuming a first-order reaction, the slope (k) is extrapolated from the aforementioned plotted data.

[2] = test system: Respiratory syncytial virus recombinant with luciferase (RSV-Luc5) in NHBE cells; assay: NHBE RSV-Luc5 384-well Assay (EC50 RSVFLUC NHBE-384, Ex. U); type: cell-based; details: human respiratory syncytial virus, 72 h, read-out: EC50 RSV FLUC NHBE 384 (per Ex. U)
Text: Example U. NHBE RSV-Luc5 384-well Assay (EC50 RSVFLUC NHBE-384)
Normal Human Bronchial Epithelial (NHBE) cells were purchased from Lonza (Walkersville, MD Cat #CC2540) and maintained in BEGM Bronchial Epithelial Cell Growth Medium BulletKit (Lonza CC-3170).
Cells were thawed, expanded, and were used for experiments at passage 2. Respiratory syncytial virus recombinant with luciferase (RSV-Luc5) (≥1×10^7 Infectious Units/ml (IU/ml) determined by TCID50) was purchased from Microbiologics (Saint Cloud, MN). Viral replication was determined in NHBE cells in the following manner.
Compounds are prepared in 100% DMSO in 384-well polypropylene plates (Greiner, Monroe, NC, Cat #784201) with 8 compounds per plate in grouped replicates of 4 at 10 serially diluted concentrations (1:3). The serially diluted compounds were transferred to low dead volume Echo plates (Labcyte, Sunnyvale, CA, Cat #LP-0200).
The test compounds were spotted to 384-well assay plates (Greiner, Monroe, NC, Cat#781091) at 200 nL per well. NHBE cells were harvested and suspended in BEGM Bronchial Epithelial Cell Growth Medium BulletKit and seeded to the pre-spotted assay plates at 5,000 cells per well in 30 μL. RSV-Luc5 virus was diluted in BEGM Bronchial Epithelial Cell Growth Medium BulletKit at 500,000 Infectious Units (IU) per mL and 10 μL per well was added to the assay plates containing cells and compounds, for an MOI of 1. The assay plates were incubated for 3 days at 37° C. and 5% CO2. At the end of incubation, One-Glo reagent (Promega, Madison, WI, Cat #E6120) was prepared. The assay plates and One-Glo reagent were equilibrated to room temperature for at least 15 minutes. 40 μL per well of One-Glo reagent was added and the plates were incubated at room temperature for 15 minutes before reading the luminescence signal on an EnVision multimode plate reader (Perkin Elmer, Waltham, MA). Remdesivir was used as positive control and DMSO was used as negative control. Values were normalized to the positive and negative controls (as 0% and 100% replication, respectively) and data was fitted using non-linear regression analysis by Gilead's dose response tool. The EC50 value for each compound was defined as the concentration reducing the viral replication by 50%.

[3] = GI S9 stability (Ex. Z), dog intestinal S9; type: in vitro ADME; details: pooled intestinal S9 fractions; dog intestinal S9, 1.0 mg/mL protein, 2 μM substrate, pH 7.4; read-out: GIS9 DOG T½ (per Ex. Z)
Description: as §1, §2, §3, §4, §5, §6, §7, §8

Structure (SMILES) | half-life at 2 μM [1] | EC50 [2] | half-life at 2 μM [3]
CC(C)C(=O)OC[C@@]1(C#N)O[C@@H](c2ccc3c(N)ncnn23)[C@H](O)[C@@H]1O [Compound 1, ((2R,3S,4R,5S)-5-(4-aminopyrrolo[2,1-f][1,2,4]triazin-7-yl)-2-cyano-3,4-dihydroxytetrahydrofuran-2-yl)methyl isobutyrate] | 25 min | 22.1 µM | 121 min
N#C[C@]1(COC(=O)c2ccccc2)O[C@@H](c2ccc3c(N)ncnn23)[C@H](O)[C@@H]1O [Compound 2, ((2R,3S,4R,5S)-5-(4-aminopyrrolo[2,1-f][1,2,4]triazin-7-yl)-2-cyano-3,4-dihydroxytetrahydrofuran-2-yl)methyl benzoate] | 32 min | 7.47 µM | 789 min
CC(C)CC(=O)OC[C@@]1(C#N)O[C@@H](c2ccc3c(N)ncnn23)[C@H](O)[C@@H]1O [Compound 3, ((2R,3S,4R,5S)-5-(4-aminopyrrolo[2,1-f][1,2,4]triazin-7-yl)-2-cyano-3,4-dihydroxytetrahydrofuran-2-yl)methyl 3-methylbutanoate] | 17 min | 8.07 µM | 497 min
CC(=O)OC[C@@]1(C#N)O[C@@H](c2ccc3c(N)ncnn23)[C@H](O)[C@@H]1O [Compound 4, ((2R,3S,4R,5S)-5-(4-aminopyrrolo[2,1-f][1,2,4]triazin-7-yl)-2-cyano-3,4-dihydroxytetrahydrofuran-2-yl)methyl acetate] | 9 min | 11 µM | 41 min
CCC(=O)OC[C@@]1(C#N)O[C@@H](c2ccc3c(N)ncnn23)[C@H](O)[C@@H]1O [Compound 5, ((2R,3S,4R,5S)-5-(4-aminopyrrolo[2,1-f][1,2,4]triazin-7-yl)-2-cyano-3,4-dihydroxytetrahydrofuran-2-yl)methyl propionate] | 6 min | 8.89 µM | 114 min
CCCC(=O)OC[C@@]1(C#N)O[C@@H](c2ccc3c(N)ncnn23)[C@H](O)[C@@H]1O [Compound 6, ((2R,3S,4R,5S)-5-(4-aminopyrrolo[2,1-f][1,2,4]triazin-7-yl)-2-cyano-3,4-dihydroxytetrahydrofuran-2-yl)methyl butyrate] | 8 min | 7.71 µM | 38 min
N#C[C@]1(COC(=O)C2CC2)O[C@@H](c2ccc3c(N)ncnn23)[C@H](O)[C@@H]1O [Compound 7, ((2R,3S,4R,5S)-5-(4-aminopyrrolo[2,1-f][1,2,4]triazin-7-yl)-2-cyano-3,4-dihydroxytetrahydrofuran-2-yl)methyl cyclopropanecarboxylate] | 100 min | 9.65 µM | 633 min
N#C[C@]1(COC(=O)C2CCC2)O[C@@H](c2ccc3c(N)ncnn23)[C@H](O)[C@@H]1O [Compound 8, ((2R,3S,4R,5S)-5-(4-aminopyrrolo[2,1-f][1,2,4]triazin-7-yl)-2-cyano-3,4-dihydroxytetrahydrofuran-2-yl)methyl cyclobutanecarboxylate] | 4 min | 8.79 µM | 10 min
CCC(CC)C(=O)OC[C@@]1(C#N)O[C@@H](c2ccc3c(N)ncnn23)[C@H](O)[C@@H]1O [Compound 9, ((2R,3S,4R,5S)-5-(4-aminopyrrolo[2,1-f][1,2,4]triazin-7-yl)-2-cyano-3,4-dihydroxytetrahydrofuran-2-yl)methyl 2-ethylbutanoate] | 57 min | 8.69 µM | 510 min
CC(C)(C)C(=O)OC[C@@]1(C#N)O[C@@H](c2ccc3c(N)ncnn23)[C@H](O)[C@@H]1O [Compound 10, ((2R,3S,4R,5S)-5-(4-aminopyrrolo[2,1-f][1,2,4]triazin-7-yl)-2-cyano-3,4-dihydroxytetrahydrofuran-2-yl)methyl pivalate] | 123 min | 8.08 µM | 269 min
CCC(CC)C(=O)Nc1ncnn2c([C@@H]3O[C@](C#N)(COC(=O)C(CC)CC)[C@@H](O)[C@H]3O)ccc12 [Compound 11, ((2R,3S,4R,5S)-2-cyano-5-(4-(2-ethylbutanamido)pyrrolo[2,1-f][1,2,4]triazin-7-yl)-3,4-dihydroxytetrahydrofuran-2-yl)methyl 2-ethylbutanoate] | 19 min | 25.2 µM | 95 min
CC(C)[C@H](N)C(=O)OC[C@@]1(C#N)O[C@@H](c2ccc3c(N)ncnn23)[C@H](O)[C@@H]1O [Compound 12, ((2R,3S,4R,5S)-5-(4-aminopyrrolo[2,1-f][1,2,4]triazin-7-yl)-2-cyano-3,4-dihydroxytetrahydrofuran-2-yl)methyl L-valinate] | 2 min | 11.5 µM | 5 min
CC(C)(C)CC(=O)OC[C@@]1(C#N)O[C@@H](c2ccc3c(N)ncnn23)[C@H](O)[C@@H]1O [Compound 13, ((2R,3S,4R,5S)-5-(4-aminopyrrolo[2,1-f][1,2,4]triazin-7-yl)-2-cyano-3,4-dihydroxytetrahydrofuran-2-yl)methyl 3,3-dimethylbutanoate] | 408 min | 10.9 µM | 755 min
CC1(C)CC(C(=O)OC[C@@]2(C#N)O[C@@H](c3ccc4c(N)ncnn34)[C@H](O)[C@@H]2O)C1 [Compound 17, ((2R,3S,4R,5S)-5-(4-aminopyrrolo[2,1-f][1,2,4]triazin-7-yl)-2-cyano-3,4-dihydroxytetrahydrofuran-2-yl)methyl 3,3-dimethylcyclobutane-1-carboxylate] | – | 8.09 µM | 48 min
N#C[C@]1(COC(=O)C2CCCCC2)O[C@@H](c2ccc3c(N)ncnn23)[C@H](O)[C@@H]1O [Compound 19, ((2R,3S,4R,5S)-5-(4-aminopyrrolo[2,1-f][1,2,4]triazin-7-yl)-2-cyano-3,4-dihydroxytetrahydrofuran-2-yl)methyl cyclohexanecarboxylate] | 2 min | – | 48 min
CC(C)C(=O)OC[C@@]1(C#N)O[C@@H](c2ccc3c(N)ncnn23)[C@H](OC(=O)C(C)C)[C@@H]1OC(=O)C(C)C [Compound 20, (2R,3S,4S,5S)-5-(4-aminopyrrolo[2,1-f][1,2,4]triazin-7-yl)-2-cyano-2-((isobutyryloxy)methyl)tetrahydrofuran-3,4-diyl bis(2-methylpropanoate)] | – | 31.7 µM | 3 min
